{"source": "paper PMC9096165", "about": "(Frontiers in Pharmacology, 2022)", "key": {"TRPV1": {"tested_on": "TRPV1", "experiment": "TRPV1 Western blotting in bladder homogenates", "assay_type": "in vivo, rat", "details": "preventive: 20 mg kg^−1 + 7 mg kg^−1 twice daily for 7 days; Western blot, CYP rats", "procedure": "Animals pre-treated with the vehicle or a single high oral dose of DF2755A (20 mg kg^−1; 12 h before the first CYP administration) followed by repeated lower doses administration (7 mg kg^−1 twice daily for 7 days) during IC development were deeply anesthetized with isoflurane (4%) and then killed.\nAfter killing, rat abdomen was opened through a midline incision, and bladder and proximal urethra were exposed. A catheter was inserted into the bladder through the urethra and a loose ligature was placed around the neck of the urinary bladder. Bladder was inflated with saline via the catheter to slightly distend the bladder and ligature was tightened to maintain proper distension. […] One piece (B1) was placed in Eppendorf, then snap-frozen in liquid nitrogen, and stored at −80°C until quantification using ELISA assay. […] For the microscopic observations of bladder inflammation, the following parameters were analyzed: bladder edema in scores (n = 10/group), bladder hemorrhage in scores (n = 10/group), urothelial loss in scores (n = 10/group), and total inflammatory score, which was calculated by adding all the individual lesion scores (n = 10/group).\nProtease and phosphatase inhibitors were added to the bladder homogenates extracted. […] The extracted proteins were quantified using BCA assay (Thermo, United States). […]"}, "F11 cells": {"tested_on": "F11 cells", "experiment": "F11 cell viability (CellTiter AQueous One)", "assay_type": "cell-based", "details": "differentiated F11 cells, 24 h, 0.1 to 5 µM", "procedure": "For these experiments, cells at 18th passage were used.\n[…] Cell viability was determined using the colorimetric method CellTiter AQueous One Solution Cell Proliferation Assay (Promega Corporation, United States), as previously reported ([Brandolini et al., 2017]). The quantity of formed formazan, as a function of viability, was measured at 492 nm using an ELISA plate reader, Infinite F200 (Tecan, Männedorf, Swiss). The results from five independent experiments were expressed as absorbance at 492 nm."}, "[1]": {"tested_on": "CYP-induced non-ulcerative IC rat model", "experiment": "Mechanical nociceptive abdominal and hind paw test (Von Frey) in chronic CYP-induced non-ulcerative IC/BPS", "assay_type": "in vivo, female Sprague–Dawley rats", "procedure": "CYP was administered to the animals by the intraperitoneal (i.p.) route (5 ml kg^−1) at the dosage of 75 mg kg^−1 for three times every third day to elicit chronic bladder irritation, as previously described ([Vizzard et al., 1996]).\nDF2755A was administered by oral gavage (2 ml kg^−1) at different doses and times before, during, or after CYP treatment, as specified hereunder. DF2755A dosages were chosen based on previous studies that described pharmacokinetics, pharmacodynamics, and pharmacological characterization of the compound ([Lopes et al., 2016]).\nAcute treatment: DF2755A was administered 24 h after the last CYP administration at 3, 7, 10, and 30 mg kg^−1.\nChronic preventive treatment: DF2755A was administered 12 h before the first CYP administration (20 mg kg^−1) and then twice daily (7 mg kg^−1) for 7 days during IC development.\nChronic therapeutic treatment: DF2755A was administered twice daily for 7 days at 7 mg kg^−1, starting from 24 h after the last CYP injection.\nOn the day of the test, each rat was placed individually in a clear plastic testing box with a grid floor and allowed to acclimatize for at least 10 min. Peripheral sensitivity in response to mechanical stimuli was determined using Von Frey monofilaments (1-2-4-8-15-26-60–100 g; Ugo Basile, Comerio, Varese, Italy) applied in the lower abdominal area (close to the urinary bladder) and on both hind paw plantar surfaces (to evaluate referred pain).\nEach Von Frey monofilament was applied five times at the level of abdomen and three times at the level of each paw, in an ascending order of strength at interval of 5 s. A stimulus-induced response was considered positive when the paw was sharply withdrawn, paw licking occurred, or the animal flinched upon removal of the filament.\nBehavioral testing was performed at different times: • 1) before CYP administration, in order to acquire basal values; • 2) after CYP administration and before DF2755A treatment, in order to verify the pathology induction and acquire pre-treatment values; • 3) at different times after DF2755A treatment, in order to acquire post-treatment values, specifically at 2 and 18 h after the last treatment."}, "[2]": {"experiment": "Tissue distribution by quantitative whole-body autoradiography", "assay_type": "in vivo, female SD rats", "details": "at tmax (2 h after dosing), oral 20 mg/kg"}, "[3]": {"details": "acute oral treatment 24 h after last CYP, abdomen and hind paw, 2 h after administration"}, "[4]": {"details": "preventive: 20 mg kg^−1 12 h before first CYP, then 7 mg kg^−1 twice daily for 7 days p.o., 24 h after last CYP"}, "[5]": {"details": "therapeutic 7 mg kg^−1 twice daily for 7 days, 3 and 7 days after treatment discontinuation"}, "[6]": {"details": "therapeutic 7 mg kg^−1 twice daily for 7 days, 18 h after the last administration"}}, "data": [{"smiles": "C[C@H](C(=O)[O-])c1ccc(Nc2nc(C(F)(F)F)cs2)cc1.[Na+]", "note": "[DF2755A, sodium (2S)-2-(4-{[4-(trifluoromethyl)-1,3-thiazol-2-yl]amino}phenyl)propanoate]", "values": [{"measurement": "TRPV1 bladder expression versus vehicle-treated animals", "setting": "TRPV1", "result": "reduced"}, {"measurement": "neuronal cell viability", "setting": "F11 cells", "result": "did not modulate neuronal cell viability"}, {"measurement": "dose at which the antinociceptive effects reached a plateau", "setting": "[1]; [3]", "result": 7, "unit": "mg/kg"}, {"measurement": "dose from which the antinociceptive effect was statistically significant", "setting": "[1]; [3]", "result": 3, "unit": "mg/kg"}, {"measurement": "decrease of mechanical stimulus threshold versus basal values, hind paws", "setting": "[1]; [4]", "result": 17, "unit": "%"}, {"measurement": "decrease of mechanical stimulus threshold versus basal values, low abdomen", "setting": "[1]; [4]", "result": "about 30%"}, {"measurement": "duration of anti-hyperalgesic effect after treatment discontinuation", "setting": "[1]; therapeutic 7 mg kg^−1 twice daily for 7 days", "result": "up to 7 days"}, {"measurement": "decrease of the threshold to mechanical stimulus, hind paw plantar surfaces", "setting": "[1]; [5]", "result": 40, "unit": "%"}, {"measurement": "reduction of the threshold to mechanical stimulus, low abdomen", "setting": "[1]; [5]", "result": 53, "unit": "%"}, {"measurement": "decrease of mechanical stimulus threshold, low abdomen", "setting": "[1]; [6]", "result": 55, "unit": "%"}, {"measurement": "decrease of the threshold to mechanical stimulus, hind paw plantar surfaces", "setting": "[1]; [6]", "result": 33, "unit": "%"}, {"measurement": "reduction of the threshold to mechanical stimuli, low abdomen", "setting": "[1]; therapeutic: 7 mg kg^−1 twice daily for 7 days p.o. from 24 h after last CYP, 2 h after last treatment (Figure 4A)", "result": 24, "unit": "%"}, {"measurement": "decrease of the threshold to mechanical stimuli, hind paw plantar surfaces", "setting": "[1]; therapeutic: 7 mg kg^−1 twice daily for 7 days p.o. from 24 h after last CYP, 2 h after last treatment (Figure 4B)", "result": 4, "unit": "%"}, {"measurement": "radioactivity concentration, blood content into the heart", "setting": "[2]", "result": "38.3 μg equivalents DF2755A g^−1 of tissue"}, {"measurement": "radioactivity concentration, kidney as a whole", "setting": "[2]", "result": "29.6 μg equivalents DF2755 A/g^−1 of tissue"}, {"measurement": "radioactivity concentration, kidney cortex", "setting": "[2]", "result": "33.2 μg equivalents DF2755A g^−1 of tissue"}, {"measurement": "radioactivity concentration, liver", "setting": "[2]", "result": "41.7 μg equivalents DF2755A g^−1 of tissue"}, {"measurement": "radioactivity concentration, small intestine contents", "setting": "[2]", "result": "180 μg equivalents DF2755A g^−1 of tissue"}, {"measurement": "radioactivity concentration, stomach contents", "setting": "[2]", "result": "51.8 μg equivalents DF2755A g^−1 of tissue"}, {"measurement": "radioactivity concentration, urinary bladder contents", "setting": "[2]", "result": "63.0 μg DF2755A g^−1 of tissue"}, {"measurement": "radioactivity concentration, urinary bladder wall", "setting": "[2]", "result": "24.3 μg equivalents DF2755A g^−1 of tissue"}, {"measurement": "share of the administered dose in urinary bladder contents", "setting": "[2]", "result": 8, "unit": "%"}, {"measurement": "share of the administered dose in urinary bladder wall", "setting": "[2]", "result": 3, "unit": "%"}]}]}
